Test results reported in the supplement of paper PMC12463676, “Small-molecule dissolution of stress granules by redox modulation benefits ALS models” (Nature Chemical Biology, 2025).

Assays:
potassium arsenate = compound: O=[As]([O-])(O)O.[K+] [potassium arsenate]; test: thermal stability z-score vs DMSO; higher = more thermally stabilized by treatment; settings: HeLa; arsenate concentration 1 mM
Experimental: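 Cellular thermal proteome profiling in HeLa cells treated with 1 mM arsenate for 1 h (DMSO pretreatment), heated to ten temperatures (37-66.3 °C). Soluble protein was quantified by TMT mass spectrometry relative to DMSO controls; the thermal stability score was transformed to a z-score; mean of n = 3 experiments.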

lipoamide = compound: NC(=O)CCCCC1CCSS1 [lipoamide]; test: as above; settings: HeLa, lipoamide concentration 100 µM
Experimental: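 Cellular thermal proteome profiling in HeLa cells. Cells were treated with 100 µM lipoamide for 1 h, with or without 1 mM arsenate for a further 1 h, then heated to ten temperatures (37-66.3 °C), and soluble protein was quantified by TMT mass spectrometry relative to 0.1% DMSO controls. The thermal stability score (sum of log2 fold changes minus the abundance score) was transformed to a z-score; mean of n = 3 experiments.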

[1] = arsenate co-treatment: 1 mM arsenate 1 h
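Further: each temperature applied for 3 min, abundance score taken as mean log2 fold change at the two lowest temperatures, z-score obtained by mean subtraction and division by SD.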

Sequence of UniProt Q8TCD5 (Q8TCD5 whole entry): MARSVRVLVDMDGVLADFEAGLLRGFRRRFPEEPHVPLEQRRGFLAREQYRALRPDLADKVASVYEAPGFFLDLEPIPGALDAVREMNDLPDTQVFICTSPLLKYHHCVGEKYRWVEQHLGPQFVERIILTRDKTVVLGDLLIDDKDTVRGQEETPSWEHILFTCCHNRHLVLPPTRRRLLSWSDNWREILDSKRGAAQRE
Sequence of UniProt Q8TDJ6 (Q8TDJ6 whole entry): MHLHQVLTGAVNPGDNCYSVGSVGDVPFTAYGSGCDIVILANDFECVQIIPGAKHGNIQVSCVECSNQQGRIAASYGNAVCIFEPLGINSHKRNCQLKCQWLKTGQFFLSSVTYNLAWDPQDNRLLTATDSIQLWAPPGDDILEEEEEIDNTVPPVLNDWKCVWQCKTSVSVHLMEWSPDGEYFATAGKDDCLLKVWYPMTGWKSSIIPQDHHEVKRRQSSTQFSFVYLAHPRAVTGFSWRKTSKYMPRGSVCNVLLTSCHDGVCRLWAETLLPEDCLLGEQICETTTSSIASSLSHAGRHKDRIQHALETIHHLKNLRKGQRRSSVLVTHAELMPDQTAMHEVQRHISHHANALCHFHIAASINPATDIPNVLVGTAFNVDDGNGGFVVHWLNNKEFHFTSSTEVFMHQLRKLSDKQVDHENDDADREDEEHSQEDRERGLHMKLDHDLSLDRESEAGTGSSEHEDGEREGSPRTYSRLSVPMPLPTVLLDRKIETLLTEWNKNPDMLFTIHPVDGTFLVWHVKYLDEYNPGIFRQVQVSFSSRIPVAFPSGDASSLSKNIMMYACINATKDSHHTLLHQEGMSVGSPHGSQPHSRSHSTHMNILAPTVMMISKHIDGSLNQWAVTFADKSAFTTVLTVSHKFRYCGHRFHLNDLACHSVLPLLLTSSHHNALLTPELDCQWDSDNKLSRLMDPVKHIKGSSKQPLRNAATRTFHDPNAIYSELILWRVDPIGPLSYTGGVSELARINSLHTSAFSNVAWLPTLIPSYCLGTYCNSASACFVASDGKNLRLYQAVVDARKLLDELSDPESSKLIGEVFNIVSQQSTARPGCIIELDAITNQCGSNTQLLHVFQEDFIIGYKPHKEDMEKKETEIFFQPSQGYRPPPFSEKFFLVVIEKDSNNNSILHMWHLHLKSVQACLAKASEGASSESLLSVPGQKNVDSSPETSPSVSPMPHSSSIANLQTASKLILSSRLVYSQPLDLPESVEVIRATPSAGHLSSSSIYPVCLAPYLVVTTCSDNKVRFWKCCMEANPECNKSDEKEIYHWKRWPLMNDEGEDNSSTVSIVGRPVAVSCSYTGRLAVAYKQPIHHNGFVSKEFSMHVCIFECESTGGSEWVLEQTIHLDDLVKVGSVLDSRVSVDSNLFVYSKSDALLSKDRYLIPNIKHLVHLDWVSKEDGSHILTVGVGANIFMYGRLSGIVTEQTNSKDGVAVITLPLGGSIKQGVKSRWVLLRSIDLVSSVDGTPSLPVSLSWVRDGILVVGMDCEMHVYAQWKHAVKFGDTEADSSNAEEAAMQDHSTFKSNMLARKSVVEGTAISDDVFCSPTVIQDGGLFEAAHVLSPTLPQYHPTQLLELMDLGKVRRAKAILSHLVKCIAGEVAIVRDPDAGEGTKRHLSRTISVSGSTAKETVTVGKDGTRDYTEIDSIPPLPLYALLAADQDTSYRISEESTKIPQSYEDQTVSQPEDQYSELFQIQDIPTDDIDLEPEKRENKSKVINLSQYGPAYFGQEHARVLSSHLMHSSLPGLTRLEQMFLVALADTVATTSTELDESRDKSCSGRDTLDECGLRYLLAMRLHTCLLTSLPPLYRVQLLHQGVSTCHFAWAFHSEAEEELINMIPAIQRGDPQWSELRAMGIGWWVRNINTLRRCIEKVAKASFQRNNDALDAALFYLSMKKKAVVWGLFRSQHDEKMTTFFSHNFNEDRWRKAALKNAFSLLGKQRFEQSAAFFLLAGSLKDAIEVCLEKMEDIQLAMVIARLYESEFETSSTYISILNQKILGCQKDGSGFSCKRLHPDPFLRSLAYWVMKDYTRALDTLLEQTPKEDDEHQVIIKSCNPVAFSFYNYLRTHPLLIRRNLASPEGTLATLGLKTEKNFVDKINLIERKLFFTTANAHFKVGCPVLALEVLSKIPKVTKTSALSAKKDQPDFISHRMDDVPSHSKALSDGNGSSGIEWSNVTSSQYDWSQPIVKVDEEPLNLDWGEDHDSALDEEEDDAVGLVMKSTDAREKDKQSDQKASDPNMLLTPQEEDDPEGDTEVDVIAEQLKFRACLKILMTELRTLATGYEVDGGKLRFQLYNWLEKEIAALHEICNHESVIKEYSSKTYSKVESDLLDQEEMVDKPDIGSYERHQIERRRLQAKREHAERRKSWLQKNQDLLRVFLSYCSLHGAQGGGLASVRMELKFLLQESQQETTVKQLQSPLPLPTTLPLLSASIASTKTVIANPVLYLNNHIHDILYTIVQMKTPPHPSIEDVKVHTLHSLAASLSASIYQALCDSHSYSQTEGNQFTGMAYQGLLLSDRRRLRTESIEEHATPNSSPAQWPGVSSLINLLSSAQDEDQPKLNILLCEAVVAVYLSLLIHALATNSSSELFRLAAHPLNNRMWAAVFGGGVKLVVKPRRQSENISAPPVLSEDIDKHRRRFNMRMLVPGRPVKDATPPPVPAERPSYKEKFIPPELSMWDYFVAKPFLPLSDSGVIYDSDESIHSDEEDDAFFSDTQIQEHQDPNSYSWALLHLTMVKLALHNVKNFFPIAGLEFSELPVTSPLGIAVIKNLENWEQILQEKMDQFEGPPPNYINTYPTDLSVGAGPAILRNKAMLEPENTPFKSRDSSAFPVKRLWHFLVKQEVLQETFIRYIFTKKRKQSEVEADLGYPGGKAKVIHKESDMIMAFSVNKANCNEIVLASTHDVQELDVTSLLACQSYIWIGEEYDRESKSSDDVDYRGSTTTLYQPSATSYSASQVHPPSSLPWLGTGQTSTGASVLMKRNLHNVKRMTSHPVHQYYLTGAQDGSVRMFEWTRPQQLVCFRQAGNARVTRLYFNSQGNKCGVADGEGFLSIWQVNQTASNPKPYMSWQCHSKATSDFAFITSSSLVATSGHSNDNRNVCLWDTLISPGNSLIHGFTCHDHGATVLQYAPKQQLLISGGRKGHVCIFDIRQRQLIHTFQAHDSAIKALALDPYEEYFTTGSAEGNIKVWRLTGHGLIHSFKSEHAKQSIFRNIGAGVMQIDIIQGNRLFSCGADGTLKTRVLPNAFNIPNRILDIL
Sequence of UniProt Q16798 (Q16798 whole entry): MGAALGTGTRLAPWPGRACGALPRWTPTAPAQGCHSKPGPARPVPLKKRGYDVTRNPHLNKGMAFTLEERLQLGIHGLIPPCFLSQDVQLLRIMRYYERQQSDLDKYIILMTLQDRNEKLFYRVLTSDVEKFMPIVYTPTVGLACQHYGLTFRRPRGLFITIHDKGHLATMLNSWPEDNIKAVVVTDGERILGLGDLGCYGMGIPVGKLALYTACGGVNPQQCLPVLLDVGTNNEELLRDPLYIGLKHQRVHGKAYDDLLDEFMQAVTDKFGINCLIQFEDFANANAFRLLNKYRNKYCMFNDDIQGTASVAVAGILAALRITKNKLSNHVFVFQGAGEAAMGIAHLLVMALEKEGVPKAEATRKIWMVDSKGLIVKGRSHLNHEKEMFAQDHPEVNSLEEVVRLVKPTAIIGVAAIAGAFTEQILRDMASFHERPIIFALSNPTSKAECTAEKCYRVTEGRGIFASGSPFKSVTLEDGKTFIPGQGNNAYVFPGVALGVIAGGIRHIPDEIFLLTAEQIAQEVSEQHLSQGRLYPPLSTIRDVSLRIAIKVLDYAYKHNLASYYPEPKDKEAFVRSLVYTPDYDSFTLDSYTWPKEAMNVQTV
Sequence of UniProt P49006 (P49006 whole entry): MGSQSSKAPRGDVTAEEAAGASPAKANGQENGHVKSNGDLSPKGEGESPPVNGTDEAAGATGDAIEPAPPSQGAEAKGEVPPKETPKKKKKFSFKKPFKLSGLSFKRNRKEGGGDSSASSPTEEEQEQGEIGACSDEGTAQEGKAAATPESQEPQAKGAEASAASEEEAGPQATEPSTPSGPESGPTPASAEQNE
Sequence of UniProt Q9H1D9 (Q9H1D9 whole entry): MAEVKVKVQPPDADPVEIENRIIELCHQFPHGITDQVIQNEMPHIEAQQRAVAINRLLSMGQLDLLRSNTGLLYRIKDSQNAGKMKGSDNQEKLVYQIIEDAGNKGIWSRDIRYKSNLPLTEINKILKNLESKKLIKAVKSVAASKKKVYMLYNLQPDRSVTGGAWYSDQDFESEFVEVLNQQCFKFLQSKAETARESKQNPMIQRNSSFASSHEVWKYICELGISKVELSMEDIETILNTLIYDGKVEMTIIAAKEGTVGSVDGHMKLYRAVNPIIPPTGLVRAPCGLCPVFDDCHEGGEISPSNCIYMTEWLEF
Sequence of UniProt P28072 (P28072 whole entry): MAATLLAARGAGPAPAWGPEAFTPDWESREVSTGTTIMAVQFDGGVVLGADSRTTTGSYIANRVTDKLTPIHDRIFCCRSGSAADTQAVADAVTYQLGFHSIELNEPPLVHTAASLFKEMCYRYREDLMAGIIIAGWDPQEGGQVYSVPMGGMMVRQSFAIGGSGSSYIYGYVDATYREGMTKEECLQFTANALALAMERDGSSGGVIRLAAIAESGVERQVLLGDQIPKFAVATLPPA
Sequence of UniProt P49336 (P49336 whole entry): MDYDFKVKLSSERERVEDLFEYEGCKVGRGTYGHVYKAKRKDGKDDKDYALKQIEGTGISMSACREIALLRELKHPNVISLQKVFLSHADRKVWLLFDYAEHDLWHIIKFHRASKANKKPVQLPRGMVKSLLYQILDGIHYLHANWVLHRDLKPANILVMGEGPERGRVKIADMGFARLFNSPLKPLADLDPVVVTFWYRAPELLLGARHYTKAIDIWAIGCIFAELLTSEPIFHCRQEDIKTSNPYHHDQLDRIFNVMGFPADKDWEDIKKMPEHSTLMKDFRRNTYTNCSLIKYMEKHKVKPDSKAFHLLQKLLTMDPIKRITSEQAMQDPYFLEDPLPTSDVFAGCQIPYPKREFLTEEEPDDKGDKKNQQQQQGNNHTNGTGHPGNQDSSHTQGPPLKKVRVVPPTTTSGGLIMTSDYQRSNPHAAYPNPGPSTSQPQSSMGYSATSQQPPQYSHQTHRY

Target	thermal stability z-score (potassium arsenate)	thermal stability z-score (lipoamide; [1])	thermal stability z-score (lipoamide; arsenate co-treatment: none)
MRPS23 (UniProt Q9Y3D9)	0.342	-0.268	0.352
OTUB1 (UniProt Q96FW1)	-0.468	0.513	0.823
NUTF2 (UniProt P61970)	-0.609	0.312	0.256
PSMB6 (UniProt P28072)	-0.414	0.174	0.262
NF2 (UniProt P35240)	-0.309	0.402	0.235
ITSN1 (UniProt Q15811)	0.365	-0.734	-0.15
COX19 (UniProt Q49B96)	0.412	0.659	0.945
ICAM1 (UniProt P05362)	-0.49	0.33	-0.273
TSC22D1 (UniProt Q15714)	0.629	0.404	0.657
TMEM214 (UniProt Q6NUQ4)	-0.768	-0.283	-0.131
NOP16 (UniProt Q9Y3C1)	-1.68	-0.153	-0.677
BTN3A2 (UniProt P78410)	-1.15	0.00462	0.0294
ARPC1B (UniProt O15143)	-0.0161	-0.0473	-0.175
POLR3F (UniProt Q9H1D9)	-1.32	-0.186	-0.242
CYP51A1 (UniProt Q16850)	0.803	-0.665	-0.0953
DCTPP1 (UniProt Q9H773)	0.499	1.22	0.682
SP1 (UniProt P08047)	0.789	-0.0425	-0.199
TP53BP2 (UniProt Q13625)	-1.29	-1.06	0.188
TFCP2 (UniProt Q12800)	0.147	0.151	0.69
FYCO1 (UniProt Q9BQS8)	-0.152	-0.321	-0.354
SVIL (UniProt O95425)	0.279	0.00545	0.00211
PJA2 (UniProt O43164)	-3.43	-0.202	-0.163
C8ORF82 (UniProt Q6P1X6)	-0.319	0.229	-0.151
GNL3 (UniProt Q9BVP2)	-0.437	-0.0335	0.0515
PYCR1 (UniProt P32322)	-0.368	-0.0172	-0.299
CDK8 (UniProt P49336)	-1.66	-0.0332	-0.822
MALT1 (UniProt Q9UDY8)	0.37	-0.539	0.249
DMXL2 (UniProt Q8TDJ6)	0.00642	-0.191	-0.105

Target	thermal stability z-score (potassium arsenate)	thermal stability z-score (lipoamide; [1])	thermal stability z-score (lipoamide; arsenate co-treatment: none)
ARL8A (UniProt Q96BM9)	0.218	0.375	0.0879
NQO2 (UniProt P16083)	0.389	1.23	0.788
RDX (UniProt P35241)	0.883	0.749	0.45
GCLM (UniProt P48507)	2.05	1.62	0.394
MRPL40 (UniProt Q9NQ50)	-0.0198	0.157	0.0972
FANCG (UniProt O15287)	-0.507	-0.348	-0.437
TAF15 (UniProt Q92804)	1.34	2.08	1.21
CPNE1 (UniProt Q99829)	-0.934	0.0896	0.0907
WARS2 (UniProt Q9UGM6)	-0.284	-0.731	-0.143
ME3 (UniProt Q16798)	0.6	1.29	1.51
UBA6	0.0818	-0.423	-0.209
SMAP (UniProt O00193)	-0.154	0.384	0.48
EIF4B (UniProt P23588)	0.032	0.102	0.429
NDUFV1 (UniProt P49821)	0.585	0.281	0.0892
EMC8 (UniProt O43402)	0.348	0.0729	0.209
AARS (UniProt P49588)	-1.29	-0.195	-0.297
FMNL2 (UniProt Q96PY5)	-0.048	0.0679	-0.0271
MTHFD1L (UniProt Q6UB35)	-0.123	-0.786	-0.399
TSC2 (UniProt P49815)	0.0977	0.021	-0.0212
PRRC1 (UniProt Q96M27)	-0.142	0.101	0.135
MARCKSL1 (UniProt P49006)	0.248	0.667	0.788
GDAP2 (UniProt Q9NXN4)	-0.255	-0.0509	-0.305
TOP1 (UniProt P11387)	-0.734	0.0566	0.449
KDSR (UniProt Q06136)	0.275	0.0293	0.264
FAM206A (UniProt Q9NX38)	0.249	-0.0394	-0.233
B4GAT1 (UniProt O43505)	0.0622	-0.309	-0.831
NT5C (UniProt Q8TCD5)	-0.982	-0.442	-0.516
